Patent publication US20200222410A1, “NUCLEOCYTOPLASMIC REGULATOR OF AUTOPHAGY-ASSOCIATED TRANSCRIPTION FACTORS” (BROWN UNIVERSITY, priority 2017, published 2020)
Several values for one entry are separate records, joined by “and”; a condition that tells them apart may be missing. Equal entries are not always repeated. Entries after “also recorded” stand apart in the source; their conditions may differ.

Assays:
TFEB = experiment: TFEB-GFP nuclear localization in HeLa cells; assay type: cell-based, human; settings: TFEB-GFP-expressing HeLa cells, 1 μM, 6 hours
Method: Cell culture: HeLa cells (ATCC) and HeLa cells expressing TFEB-GFP (S. Ferguson lab) were grown in 6-well plates on a coverslip for 24 hours in DMEM High Glucose (Genesee Scientific) containing 2 mM L-Glutamine, 1% Penicillin-Strep and 10% Fetal Bovine Serum (GenClone). For RNAi experiments, both HeLa cell lines were transfected with Silencer Select siRNA against XPO1 (5 nM) or TFEB (10 nM) or negative control siRNA #2 (Thermo Fisher Scientific) with RNAi Max (Thermo Fisher Scientific) and Opti-MEM (Gibco) for 48 hours. Cells were incubated for another 6 hours with DMSO 0.1%, Torin 1 […], KPT-330, KPT-276, KPT-185 or KPT-335 (1 μM) (Selleckchem). For Lysotracker analysis, cells on coverslips were previously grown with vehicle or compounds (including GSK-3β inhibitor VIII or Leptomycin b (10 nM) for 6 hours followed by a one hour incubation with 100 nM of Lysotracker Red DND-99 (Thermo Fisher Scientific) and live cells were imaged. Coverslips were mounted for imaging onto slides and imaged with a Zeiss Axiovert 200M Fluorescent Microscope. Lysotracker signal was quantified by measuring signal intensity over background of individual cells using ImageJ. For imaging TFEB-GFP signal, cells were fixed in methanol. Nuclear localization was quantified by counting cells that had higher GFP intensity in the nucleus compared to the cytoplasm measured using ImageJ.

HLH-30 = experiment: HLH-30::GFP nuclear localization in nematodes (fluorescent microscopy); assay type: in vivo, C. elegans
Method: The nematode C. elegans is an art-recognized system to identify genetic and pharmacological modifiers of various cellular processes. As such, an unbiased genome-wide RNAi screen for genetic modifiers of the activity of HLH-30/TFEB was performed (FIG. 1B). Specifically, enhancers of HLH-30 nuclear localization were searched for by following the distribution of HLH-30 fused to GFP.
HLH-30-GFP-expressing nematodes were fed HT115 E. coli bacteria transformed with a plasmid containing the L4440 backbone and a portion of the cDNA sequence complementary to the coding sequence of the xpo-1 gene. Nuclear enrichment was measured by fluorescent microscopy after animals were treated from eggs to day 1 of adulthood. The RNAi was based on the cosmid sequence ZK742.1 of the C. elegans genome. The sequence of the RNAi used is:
Fluorescent microscopy imaging: Transgenic worms were mounted on a 2% agarose pad with 0.1% sodium azide and imaged using a Zeiss Discovery V20 fluorescent microscope.
Animals were fed OP50 E. coli with 0.2% of DMSO (vehicle control) or 0.2% DMSO with KPT-330 at 0.2 mM. Nuclear localization of the HLH-30-GFP reporter and survival was measured.

C. elegans [1] = experiment: Lifespan analysis of C. elegans; assay type: in vivo; settings: for lifespan of treated animals compared to vehicle-treated controls: C. elegans wild-type; for % Difference in mean lifespan vs vehicle control / Drug treatment Mean Lifespan: N2 wild-type; for Drug treatment Mean Lifespan: 20° C.
Method: Lifespan analysis: Worms were synchronized by bleaching and eggs were grown on OP50 E. coli during development. Day 1 adults were transferred onto corresponding RNAi plates and kept at 20° C. Mantel-Cox log rank statistical analyses were calculated using Stata 13.0.

C. elegans [2] = experiment: Heat stress survival assay (37° C.); assay type: in vivo; settings: 100 μM
Method: (§1) Proteostasis analyses: Heat shock analyses were performed at 37° C. and scoring survival every hour. Aggregation was visualized by fluorescent microscopy using strains expressing Q35::GFP in muscle (AM140) (Morley et al., 2002, The threshold for polyglutamine-expansion protein aggregation and cellular toxicity is dynamic and influenced by aging in Caenorhabditis elegans. Proc Natl Acad Sci USA 99, 10417-10422) or Q40::YFP in intestine (GF78) (Mohri-Shiomi and Garsin, (2008) Insulin signaling and the heat shock response modulate protein homeostasis in the Caenorhabditis elegans intestine during infection. J Biol Chem 283, 194-201). Aggregate clearance was assayed with a strain (GMC101) (McColl et al., (2012). Utility of an improved model of amyloid-beta (Abeta(1)(−) (4)(2)) toxicity in Caenorhabditis elegans for drug screening for Alzheimer's disease. Mol Neurodegener 7, 57). […]) inducing expression of human Aβ42 at 25° C. Following a 5-day RNAi feeding, paralysis was assayed after 48 hours at 25° C.

mCherry::GFP::LGG-1 = experiment: Autophagy analysis with tandem reporter mCherry::GFP::LGG-1 (autophagosome and autolysosome formation); assay type: in vivo, C. elegans; settings: 50 or 100 μM, visualized after 48 hours
Method: Autophagy analysis: Worms expressing the tandem reporter GFP-mCherry-LGG-1 (Chang et al., (2017). Spatiotemporal regulation of autophagy during Caenorhabditis elegans aging. eLife 6) were treated from L4/day 1 of adulthood and imaged using an LSM 800 Zeiss Confocal Laser Scanning Microscope as previously described (Chang et al., (2017). Spatiotemporal regulation of autophagy during Caenorhabditis elegans aging. eLife 6). To functionally assess the effect of genetically or pharmacologically inhibiting xpo-1 on the autophagic pathway, autophagic flux (i.e. fusion of autophagosome to lysosome) was measured in C. elegans. Several fluorescent reporters of autophagy proteins (including LGG-1/LC3, SQST-1/P62) have been designed to observe and quantify autophagic flux. […] These animals were used to determine the effect of silencing (RNAi) xpo-1 on autophagy using fluorescent microscopy. The accumulation of unique red punctae represents active autolysosome formation, indicative of activated autophagy.

[3] = test system: polyQ-containing protein aggregates; experiment: polyQ aggregate formation (Q35::GFP muscle, Q40::YFP intestine); assay type: in vivo, C. elegans; settings: day 5 animals, 100 μM
Method: as §1

dsodH71Y flies = experiment: Lifespan analysis of ALS model in flies (dsodH71Y); assay type: in vivo, D. melanogaster; settings: for Drug treatment Mean Lifespan: H71Y Sod-1 (dsod) flies, 25° C.; for % Difference in mean lifespan vs vehicle control: H71Y flies
Method: l Lifespan analysis in Drosophila: Measurement of lifespan (25° C.) in dsodH71Y was performed as previously described in the art (Sahin et al., 2017, Human SOD1 ALS Mutations in a Drosophila Knock-In Model Cause Severe Phenotypes and Reveal Dosage-Sensitive Gain- and Loss-of-Function Components. Genetics 205, 707-723). The software Stata 13.0 was used to perform Mantel-Cox log rank statistical analyses.

## O=C(/C=C\n1cnc(-c2cc(C(F)(F)F)cc(C(F)(F)F)c2)n1)NNc1ccccn1 [KPT-335, Verdinexor]
TFEB
  nuclear localization of TFEB: marked increase in nuclear localization of TFEB

## O=C(/C=C\n1cnc(-c2cc(C(F)(F)F)cc(C(F)(F)F)c2)n1)N1CC(F)(F)C1 [KPT-276]
HLH-30; 25 μM
  nuclear enrichment of HLH-30: nuclear enrichment of HLH-30
C. elegans [1]
  lifespan of treated animals compared to vehicle-treated controls: lifespan extension
C. elegans [1]; 25 μM
  % Difference in mean lifespan vs vehicle control: 9.4%
  Drug treatment Mean Lifespan: 23.2 days
TFEB
  nuclear localization of TFEB: marked increase in nuclear localization of TFEB

## O=C(/C=C\n1cnc(-c2cc(C(F)(F)F)cc(C(F)(F)F)c2)n1)NNc1cnccn1 [KPT-330, Selinexor]
HLH-30; Day 1 adults, 25, 50 and 100 μM for 72 hours
  nuclear localization of HLH-30: displayed nuclear localization of HLH-30
HLH-30; concentrations below 25 μM
  Nuclear localization of HLH-30::GFP: not detected
HLH-30; lower concentration (data not shown)
  nuclear localization of HLH-30: also led to nuclear localization of HLH-30
HLH-30; nematodes grown on plates containing 2 mM
  nuclear localization of HLH-30 (fused to GFP): led to nuclear localization of HLH-30
C. elegans [1]
  lifespan of treated animals compared to vehicle-treated controls: significant lifespan extension; also recorded: significant increase in the lifespan
C. elegans [1]; 25 μM
  % Difference in mean lifespan vs vehicle control: 12.4% and 13.2%
  Drug treatment Mean Lifespan: 21.7 days and 24 days
C. elegans [1]; 50 μM
  % Difference in mean lifespan vs vehicle control: 9.8% and 17%
  Drug treatment Mean Lifespan: 21.2 days and 24.8 days
C. elegans [1]; 100 μM
  % Difference in mean lifespan vs vehicle control: 14% and 21.7%
  Drug treatment Mean Lifespan: 22 days and 25.8 days
C. elegans [2]; day 1 to day 5 of adulthood
  resistance to heat: improved resistance to heat
C. elegans [2]; N2 wild-type, Day 5 of adulthood
  % Difference in heat stress survival vs vehicle control: 18.5% and 34.7%
C. elegans [2]; N2 wild-type, Day 5 of adulthood after 5 days of treatment
  Heat Stress survival (mean, hours): 6.4 h and 6.2 h
mCherry::GFP::LGG-1
  Autophagy in pharynx and hypodermal seam cells: enhanced
[3]
  formation of polyQ-containing (Q40::YFP) aggregates: reduction in the formation
dsodH71Y flies; both sexes, 100 μM
  Drug treatment Mean Lifespan: 9.8 days and 13.5 days
  % Difference in mean lifespan vs vehicle control: 24.0% and 18.4%
dsodH71Y flies; females, 100 μM
  Drug treatment Mean Lifespan: 12 days and 16.9 days
  % Difference in mean lifespan vs vehicle control: 26.3% and 27.1%
dsodH71Y flies; males, 100 μM
  Drug treatment Mean Lifespan: 6.8 days and 6 days
dsodH71Y flies; dsodH71Y flies fed 100 μM during adulthood
  overall survivorship compared to control: beneficial impact on the overall survivorship
dsodH71Y flies; dsodH71Y flies, 100 μM
  lifespan of females: extended significantly
TFEB
  nuclear localization of TFEB: marked increase in nuclear localization of TFEB

## COc1cc(-c2ncn(/C=C\C(=O)OC(C)C)n2)cc(C(F)(F)F)c1 [KPT-185]
TFEB
  nuclear localization of TFEB: marked increase in nuclear localization of TFEB
